Where “and” joins values, the source holds several entries; their conditions need not be identical. Equal values may be shown once. Read-outs that look alike come from different tables or passages of the source. Blank lines part the entries; values can stand above or below the compound they belong to.
Legend:
cM5 mAChR = biological target: T1, cM5 mAChR (Pan troglodytes, UniProt Q5IS53); test: Inhibition of agonist-stimulated calcium mobilization; format: cell-based, chimpanzee
T1 sequence (Q5IS53 1-532): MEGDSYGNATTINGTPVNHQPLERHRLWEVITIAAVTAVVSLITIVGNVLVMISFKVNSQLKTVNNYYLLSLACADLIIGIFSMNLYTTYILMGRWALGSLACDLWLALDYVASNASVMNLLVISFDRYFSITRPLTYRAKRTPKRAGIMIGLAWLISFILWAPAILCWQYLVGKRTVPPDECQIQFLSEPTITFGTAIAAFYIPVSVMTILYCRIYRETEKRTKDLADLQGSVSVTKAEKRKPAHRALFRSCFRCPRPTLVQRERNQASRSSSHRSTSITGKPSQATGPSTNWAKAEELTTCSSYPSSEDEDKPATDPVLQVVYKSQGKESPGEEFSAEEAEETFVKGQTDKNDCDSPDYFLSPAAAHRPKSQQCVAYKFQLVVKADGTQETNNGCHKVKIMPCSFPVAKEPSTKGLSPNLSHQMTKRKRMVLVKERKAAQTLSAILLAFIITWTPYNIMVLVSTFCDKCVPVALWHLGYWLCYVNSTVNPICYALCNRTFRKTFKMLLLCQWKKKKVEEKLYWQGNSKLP

hM2 mAChR [1] = biological target: T2, hM2 mAChR (Homo sapiens, UniProt P08172); details: cited from earlier work
T2 sequence (P08172 1-466): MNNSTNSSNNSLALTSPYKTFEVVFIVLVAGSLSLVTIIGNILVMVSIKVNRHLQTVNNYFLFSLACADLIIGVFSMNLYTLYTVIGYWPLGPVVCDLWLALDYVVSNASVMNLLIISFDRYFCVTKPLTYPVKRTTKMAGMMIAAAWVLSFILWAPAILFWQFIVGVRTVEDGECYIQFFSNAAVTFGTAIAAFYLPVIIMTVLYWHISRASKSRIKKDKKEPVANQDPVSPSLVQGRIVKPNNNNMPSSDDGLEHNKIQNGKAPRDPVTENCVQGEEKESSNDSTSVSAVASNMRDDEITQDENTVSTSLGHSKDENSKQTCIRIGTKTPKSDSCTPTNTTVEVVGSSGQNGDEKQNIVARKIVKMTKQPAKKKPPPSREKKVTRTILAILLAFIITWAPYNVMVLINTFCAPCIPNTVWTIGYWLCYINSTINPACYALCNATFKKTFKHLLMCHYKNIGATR

[2] = system: rat isolated tracheal tissue; test: Antagonism of ACh-evoked contraction: potency and offset time
hM3 mAChR [3] = biological target: T3, hM3 mAChR (Homo sapiens, UniProt P20309); details: cited from earlier work
T3 sequence (P20309 whole entry): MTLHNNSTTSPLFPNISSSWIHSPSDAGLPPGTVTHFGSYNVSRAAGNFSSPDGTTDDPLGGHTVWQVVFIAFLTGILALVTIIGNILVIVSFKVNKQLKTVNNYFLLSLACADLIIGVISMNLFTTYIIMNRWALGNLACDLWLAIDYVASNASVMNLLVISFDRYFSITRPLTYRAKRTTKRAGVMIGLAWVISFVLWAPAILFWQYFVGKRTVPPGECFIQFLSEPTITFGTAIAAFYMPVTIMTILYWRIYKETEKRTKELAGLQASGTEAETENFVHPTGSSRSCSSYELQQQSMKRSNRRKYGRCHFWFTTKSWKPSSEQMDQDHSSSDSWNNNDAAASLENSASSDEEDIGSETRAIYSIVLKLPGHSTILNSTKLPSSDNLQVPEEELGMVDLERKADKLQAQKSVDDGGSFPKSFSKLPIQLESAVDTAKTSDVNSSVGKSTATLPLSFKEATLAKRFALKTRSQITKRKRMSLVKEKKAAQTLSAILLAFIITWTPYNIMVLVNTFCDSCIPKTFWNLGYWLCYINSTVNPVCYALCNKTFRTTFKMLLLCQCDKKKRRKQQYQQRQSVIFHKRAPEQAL

[4] = system: human isolated bronchial tissue; details: human bronchus, carbachol; cited from earlier work
hM3 mAChR [5] = biological target: T3, hM3 mAChR; test: Competition radioligand binding, [^3H]NMS; details: hM3 pKI, [^3H]NMS competition, CHO-K1 membranes, 37°C; mean ± SD
hM5 mAChR [6] = biological target: T4, hM5 mAChR (Homo sapiens, UniProt P08912); test: Competition radioligand binding, [^3H]NMS
T4 sequence (P08912 1-532): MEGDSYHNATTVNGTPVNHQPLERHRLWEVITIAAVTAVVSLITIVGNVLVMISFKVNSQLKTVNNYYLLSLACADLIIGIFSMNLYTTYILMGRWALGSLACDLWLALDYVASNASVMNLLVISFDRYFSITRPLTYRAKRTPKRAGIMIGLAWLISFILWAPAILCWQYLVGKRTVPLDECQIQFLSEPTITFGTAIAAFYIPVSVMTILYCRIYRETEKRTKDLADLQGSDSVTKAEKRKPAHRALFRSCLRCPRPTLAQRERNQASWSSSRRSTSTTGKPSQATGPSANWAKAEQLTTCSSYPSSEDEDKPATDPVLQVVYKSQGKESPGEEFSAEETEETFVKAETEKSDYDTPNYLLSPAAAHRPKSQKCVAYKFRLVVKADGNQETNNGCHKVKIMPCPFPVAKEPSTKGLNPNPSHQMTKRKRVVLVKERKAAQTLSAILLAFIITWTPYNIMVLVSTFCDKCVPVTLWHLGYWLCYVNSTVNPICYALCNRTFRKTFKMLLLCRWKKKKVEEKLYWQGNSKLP

[7] = system: guinea pig isolated trachea; test: Inhibition of EFS contraction: potency and offset time; details: IC90 concentration, washout
histamine H1 receptor = histamine H1 receptor (Cavia porcellus, UniProt P31389); test: H1 radioligand binding, concentration-response; details: selectivity hM3 over H1
histamine H1 receptor, sequence (P31389 whole entry): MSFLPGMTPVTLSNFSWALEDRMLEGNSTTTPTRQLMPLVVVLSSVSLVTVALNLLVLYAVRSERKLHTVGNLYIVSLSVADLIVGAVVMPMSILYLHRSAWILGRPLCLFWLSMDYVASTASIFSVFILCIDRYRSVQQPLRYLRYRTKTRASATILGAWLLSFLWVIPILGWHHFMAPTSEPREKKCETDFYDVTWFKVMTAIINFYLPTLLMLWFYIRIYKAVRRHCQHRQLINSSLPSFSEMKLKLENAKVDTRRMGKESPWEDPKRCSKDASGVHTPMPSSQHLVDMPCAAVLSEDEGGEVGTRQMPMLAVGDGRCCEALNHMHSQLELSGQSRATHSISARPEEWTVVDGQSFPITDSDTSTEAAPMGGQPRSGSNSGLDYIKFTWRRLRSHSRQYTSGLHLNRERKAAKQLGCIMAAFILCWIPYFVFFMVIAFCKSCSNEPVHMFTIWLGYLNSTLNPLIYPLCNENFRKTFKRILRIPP

hM3 mAChR [8] = biological target: T3, hM3 mAChR; test: Reversibility of antagonism of ACh-induced calcium mobilization, CHO-K1 cells; format: cell-based
Guinea Pig H1 (central) = Guinea Pig H1 (central) (Cavia porcellus, UniProt P31389); test: Off-target panel radioligand binding; details: read-out: % Inhibition Specific Binding (1 µM)
Guinea Pig H1 (central), sequence (P31389 whole entry): as above

hM4‐Gα16 mAChR = biological target: T5, hM4‐Gα16 mAChR (Homo sapiens, UniProt P08173); test: Inhibition of agonist-stimulated calcium mobilization; format: cell-based
T5 sequence (P08173 1-479): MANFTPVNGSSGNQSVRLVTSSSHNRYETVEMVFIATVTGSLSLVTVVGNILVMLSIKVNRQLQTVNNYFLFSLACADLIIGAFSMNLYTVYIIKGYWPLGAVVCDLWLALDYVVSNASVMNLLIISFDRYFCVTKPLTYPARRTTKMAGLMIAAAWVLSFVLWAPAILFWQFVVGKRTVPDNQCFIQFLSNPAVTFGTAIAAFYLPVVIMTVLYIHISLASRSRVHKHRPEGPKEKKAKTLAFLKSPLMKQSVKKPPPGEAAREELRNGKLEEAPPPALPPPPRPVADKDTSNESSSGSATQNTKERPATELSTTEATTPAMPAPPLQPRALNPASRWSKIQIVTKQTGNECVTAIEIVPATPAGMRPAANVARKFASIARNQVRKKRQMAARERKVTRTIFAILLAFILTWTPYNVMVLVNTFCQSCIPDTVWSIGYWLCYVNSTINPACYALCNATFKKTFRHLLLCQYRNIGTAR

hM2 mAChR [9] = biological target: T2, hM2 mAChR; test: Association and dissociation binding kinetics; details: 37°C
[10] = system: panel of 81 receptors, enzymes, and channels; test: Off-target panel screen; format: binding; details: 1 μmol L^−1
[11] = system: human isolated bronchial tissue; test: Antagonism of carbachol-evoked contraction: potency and offset time; details: superfusion washout, 10‐100 nmol·L^−1, 1 μmol L^−1 CCh, 10 hours perfusion
hM5 mAChR [12] = biological target: T4, hM5 mAChR; test: Saturation radioligand binding
hM3 mAChR [13] = biological target: T3, hM3 mAChR; test: Saturation radioligand binding
[14] = system: bronchoconstrictor response to ACh or methacholine (MCh); details: dogs, inhalation dosing; cited from earlier work
[15] = biological target: cloned human 5‐HT4(C) receptors (Homo sapiens, UniProt Q13639); test: 5-HT4 agonist assay; format: cell-based
cloned human 5‐HT4(C) receptors, sequence (Q13639 1-380 isoform Q13639-4): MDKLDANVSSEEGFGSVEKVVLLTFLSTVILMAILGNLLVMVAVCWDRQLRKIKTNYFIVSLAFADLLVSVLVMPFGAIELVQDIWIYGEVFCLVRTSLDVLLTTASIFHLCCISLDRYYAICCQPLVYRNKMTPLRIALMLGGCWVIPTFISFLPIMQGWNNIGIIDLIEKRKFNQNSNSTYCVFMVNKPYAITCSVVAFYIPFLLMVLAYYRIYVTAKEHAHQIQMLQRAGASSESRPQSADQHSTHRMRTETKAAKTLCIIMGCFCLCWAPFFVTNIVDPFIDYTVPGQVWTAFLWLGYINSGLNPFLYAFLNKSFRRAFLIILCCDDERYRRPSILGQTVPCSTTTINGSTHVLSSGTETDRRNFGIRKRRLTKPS

hM1 mAChR [16] = biological target: T6, hM1 mAChR (Homo sapiens, UniProt P11229); test: Inhibition of agonist-stimulated calcium mobilization; format: cell-based
T6 sequence (P11229 1-460): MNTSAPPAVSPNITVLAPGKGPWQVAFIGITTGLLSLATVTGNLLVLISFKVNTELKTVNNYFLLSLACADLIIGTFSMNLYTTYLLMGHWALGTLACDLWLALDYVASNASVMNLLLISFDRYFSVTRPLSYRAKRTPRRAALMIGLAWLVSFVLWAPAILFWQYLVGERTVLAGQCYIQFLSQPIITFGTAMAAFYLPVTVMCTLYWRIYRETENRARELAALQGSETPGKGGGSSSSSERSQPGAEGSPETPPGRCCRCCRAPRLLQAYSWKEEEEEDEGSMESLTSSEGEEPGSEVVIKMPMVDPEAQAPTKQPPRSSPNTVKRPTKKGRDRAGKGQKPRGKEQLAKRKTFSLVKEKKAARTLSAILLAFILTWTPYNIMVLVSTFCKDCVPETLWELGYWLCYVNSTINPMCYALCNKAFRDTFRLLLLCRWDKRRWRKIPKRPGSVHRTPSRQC

hM4 mAChR [17] = biological target: T7, hM4 mAChR (Homo sapiens, UniProt P08173); test: Competition radioligand binding, [^3H]NMS
T7 sequence (P08173 1-479): T5 sequence (P08173 1-479)

hM1 mAChR [18] = biological target: T6, hM1 mAChR; test: Saturation radioligand binding
[19] = system: bronchoconstrictor response to ACh or methacholine (MCh); details: rats, inhalation dosing; cited from earlier work
hM4 mAChR [20] = biological target: T7, hM4 mAChR; test: Saturation radioligand binding
hM3 mAChR [21] = biological target: T3, hM3 mAChR; test: Inhibition of agonist-stimulated calcium mobilization; format: cell-based
hM1 mAChR [22] = biological target: T6, hM1 mAChR; test: Competition radioligand binding, [^3H]NMS
COPD patients = details: nebulized, once‐daily dosing; cited from earlier work
hM2 mAChR [23] = biological target: T2, hM2 mAChR; test: Inhibition of agonist-stimulated [^35S]GTPγS binding, CHO-K1 membranes; format: biochemical; details: absence of agonist
hM3 mAChR [24] = biological target: T3, hM3 mAChR; test: Association and dissociation binding kinetics
[25] = tested alone in cells expressing mAChRs

Compound: CC(C)[N+]1(C)[C@@H]2CC[C@H]1C[C@@H](OC(=O)C(CO)c1ccccc1)C2 (stereo partly drawn) [Ipratropium, reference compound]
- Ki (cM5 mAChR): 0.191 nM
- dissociation from hM2 receptors (hM2 mAChR [1]): dissociate rapidly
- pA2 ([2]; ACh contraction, surmountable antagonist): 9.2 ± 0.1
- dissociation from hM3 receptors (hM3 mAChR [3]): dissociate rapidly
- nature of antagonism [4]: surmountable antagonism

Compound: CN(CCN1CCC(OC(=O)Nc2ccccc2-c2ccccc2)CC1)C(=O)c1ccc(CN2CCC(C(N)=O)CC2)cc1 [Revefenacin, biphenyl‐2‐ylcarbamic acid 1‐(2‐{[4‐(4‐carbamoylpiperidin‐1‐ylmethyl)benzoyl]methylamino}ethyl)piperidin‐4‐yl ester]
- Ki (hM3 mAChR [5]): 0.2 nM and 0.178 nM
- Ki (hM5 mAChR [6]; hM5 KI, [^3H]NMS competition, from IC50 by Cheng and Prusoff): 6.7 nM
- Ki (hM5 mAChR [6]; hM5 pKI, [^3H]NMS competition, CHO-K1 membranes, 37°C, mean ± SD): 6.31 nM
- offset t 1/2 [7]: > 16 h
- potency at histamine H1 receptor lower than Ki at the hM3 receptor (histamine H1 receptor): > 2700 fold
- Kb (hM3 mAChR [8]): 0.0933 nM
- Ki (cM5 mAChR): 0.363 nM
- Ca^2+ response when tested alone (agonist activity), cM5 (cM5 mAChR; [25]): no Ca^2+ response
- inhibition at 1 µM (Guinea Pig H1 (central)): 87%
- Ki (hM4‐Gα16 mAChR): 0.0112 nM
- Ca^2+ response when tested alone (agonist activity), hM4‐Gα16 (hM4‐Gα16 mAChR; [25]): no Ca^2+ response
- dissociation t 1/2 M2 (hM2 mAChR [9]): 6.9 min
- activity at a majority of the targets [10]: < 75%
- offset t 1/2 [11]: > 10 h
- Kd (hM5 mAChR [12]): 4.2 nM
- Kd (hM3 mAChR [13]): 0.39 nM
- duration of bronchoprotective effect [14]: ≥ 24 h
- EC50 [15]: 257 nM
- potency at 5‐HT4 receptor lower than Ki at the hM3 receptor ([15]; selectivity hM3 over 5-HT4): > 1400 fold
- Ki (hM1 mAChR [16]): 0.126 nM
- Ca^2+ response when tested alone (agonist activity), hM1 (hM1 mAChR [16]; [25]): no Ca^2+ response
- Ki (hM4 mAChR [17]; hM4 KI, [^3H]NMS competition, from IC50 by Cheng and Prusoff): 0.56 nM
- Ki (hM4 mAChR [17]; hM4 pKI, [^3H]NMS competition, CHO-K1 membranes, 37°C, mean ± SD): 0.55 nM
- offset t 1/2 ([2]; IC90 concentration, washout, time for response to recover by 50%): 13.3 h
- potency lower than that of tiotropium ([2]; from pKB): 4 fold
- potency greater than that of ipratropium ([2]; pKB vs pA2): 20 fold
- Kd (hM1 mAChR [18]): 1 nM
- duration of bronchoprotective effect [19]: ≥ 24 h
- Kd (hM4 mAChR [20]): 0.46 nM
- Ki (hM3 mAChR [21]): 0.0955 nM
- Ca^2+ response when tested alone (agonist activity), hM3 (hM3 mAChR [21]; [25]): no Ca^2+ response
- Ki (hM1 mAChR [22]): 0.417 nM
- duration of bronchodilation (COPD patients): 24 h
- stimulation of [^35S]GTPγS binding at hM2 (agonist activity) (hM2 mAChR [23]): did not stimulate
- Kd (hM3 mAChR [24]): 0.0933 nM
- hM3 dissociation t 1/2 shorter than that of tiotropium (hM3 mAChR [24]): 2.8 fold
- dissociation t 1/2 M3 (hM3 mAChR [24]; 37°C): 1.37 h

- Ki (hM5 mAChR [6]): 0.0813 nM
- offset t 1/2 [7]: > 20 h
- Ki (cM5 mAChR): 0.105 nM
- Ki (hM4‐Gα16 mAChR): 0.0617 nM
- Ki (hM4 mAChR [17]): 0.0204 nM
Compound: C[N+]1(C)[C@@H]2C[C@@H](OC(=O)C(O)(c3cccs3)c3cccs3)C[C@H]1[C@@H]1O[C@@H]12 [Tiotropium, reference compound]
- nature of antagonism [4]: potent insurmountable antagonist

Source: publication PMC5927803 (Pharmacology Research & Perspectives, 2018)
